# Reference: ChEMBL document CHEMBL3507680, “University of Dundee, Gates Library screen for HepG2 cell viability”
# Experiment: Human HepG2 cell viability assay in 384 well format
# Assay type: toxicity, cell-based
# Parameters: dose 125 nL, time 70.5 hour; cytotoxicity at 70.5 h: concentration not given beside the values
# Settings: HepG2 cells, read-out: Inhibition
row,Compound,cytotoxicity at 70.5 h [%]
1,CN(Cc1nc(Cc2ccccc2F)no1)CC1Cc2ccccc2O1 (stereo not drawn),8.45
2,O=S1(=O)NC(C2CCN(Cc3ccccn3)CC2)Nc2ccccc21 (stereo not drawn),-9.26
3,CS(=O)(=O)NC[C@H]1OC[C@H]2CN(CCc3ccccc3)CC[C@H]21,-0.811
4,CC(C)Cc1cc(CC2(NCc3ccccc3Cl)COC2)no1,4.27
5,CCc1ncc2c(n1)CN(Cc1cccc(OCC(N)=O)c1)CC2,1.32
6,CCOC1CCCN(C(=O)NCCc2ccn(-c3ccccc3)n2)C1 (stereo not drawn),9.56
7,NC(=O)Cn1cc(NC(=O)N2CCSCC2)cn1,15.3
8,Cn1ccnc1CNC(=O)CCc1cccc(F)c1,-9.01
9,CN1Cc2ccccc2NC(=O)C12CCNC2 (stereo not drawn),-2.63
10,Cc1ccc(OCCN2CCCC(c3cc(C(N)=O)[nH]n3)C2)cc1 (stereo not drawn),-5.38
11,COCC(=O)N1CCC(c2cc(-c3ccc(C)cc3)n[nH]2)C1 (stereo not drawn),14.4
12,Cc1cnn(CC2CCCCN2C(=O)CC(F)(F)F)c1 (stereo not drawn),-3.76
13,CCc1nnc(CN(C)Cc2cccc(C(=O)Nc3nccs3)c2)o1,-1.25
14,Cc1cc2cccc(NC(=O)N3CCC(N(C)C)C3)c2o1 (stereo not drawn),-8.17
15,Cc1nc(C2CCCCC2)sc1C(=O)O,0.584
16,C1CC(CN2C[C@@H]3C[C@@H](c4nnc(C5CC5)o4)O[C@@H]3C2)C1,27.7
17,Cc1cnn(C2CCCN(C(=O)C3=NN(C)C(=O)CC3)C2)c1 (stereo not drawn),22.6
18,CC(=O)N(C)CCCc1cc(-c2ccccc2)no1,-4.09
19,Cn1cc(C(=O)NCC(Cc2cccc(F)c2)N2CCCCC2=O)nn1 (stereo not drawn),-14.8
20,CS(=O)(=O)NC1CCN(C(=O)c2[nH]c3ccc(Cl)cc3c2Cl)CC1,31.7
21,c1cncc(C[C@H]2[C@H](N3CCOCC3)CCN2Cc2cccs2)c1,-5.01
22,CN(C)C(=O)N1Cc2ccccc2C2(CCN(C3CCOCC3)CC2)C1,-10.7
23,CN(C)CCN1CCN(C)C2(CCN(c3nccs3)CC2)C1=O,-3.76

row,Compound,cytotoxicity at 70.5 h [%]
1,Cc1csc(N(C)C(=O)C2CC(=O)N(c3ccccc3F)C2)n1 (stereo not drawn),-0.144
2,O=C(Cn1ccnc1)N1CCCC(OCc2cccnc2)C1 (stereo not drawn),29.5
3,Cc1ccc(C(=O)N2CCC3(CC2)CC(N2CCOCC2)C3)cc1,-12.7
4,CNc1cc2c(nn1)CCN(C(=O)c1cc(C)no1)C2,-7.41
5,Cc1ncc2c(n1)CN(Cc1nc3ccccc3o1)CC2,11.4
6,CCc1nc(CN2CCN(C(=O)c3cc(C)nn3C)CC2)cs1,-6.68
7,CCOc1ccccc1-n1c(C2CC(=O)N(C)C2)n[nH]c1=O (stereo not drawn),-25.4
8,COc1cc(Cl)c(C)cc1NC(=O)CCNc1ccc(C#N)cn1,9.88
9,Cc1cccc(CN2CCN(C(=O)[C@@H]3CSCN3C)CC2)c1,-13.3
10,Cc1ccc(N2CC[C@H](O)[C@@H]2Cc2cnn(C)c2)nn1,-6.12
11,Cc1ccc(CSc2nc(N)cc(NCCC(=O)N3CCCC3)n2)cc1,-4.18
12,CCn1cc(N2Cc3nc(N(C)C)ncc3C2=O)cn1,-4.06
13,COc1cccc(-c2noc(C3CCN(Cc4cccs4)C3)n2)c1 (stereo not drawn),8.44
14,CC(C)CN1CCc2[nH]cnc2C12CCN(C(=O)c1ccccn1)CC2,-3.63
15,Cc1ccsc1CN(Cc1ccccn1)CC(O)CO (stereo not drawn),-1.67
16,COc1ccccc1C(O)CNC(=O)NCc1cc[nH]n1 (stereo not drawn),-4.26
17,CCN(CC)C(=O)Cn1cc(C(=O)NCCCc2scnc2C)nn1,-4.02
18,CN(c1ccc(CNC(=O)c2ccc(O)nc2)cc1)C1CCCCC1,0.503
19,O=C(c1cnccn1)N1CCC2(CC1)CC(Oc1ccccc1)CO2 (stereo not drawn),25.9
20,N[C@@H]1CCN(Cc2ccccc2CS(=O)(=O)c2ccccc2)C[C@H]1O,-8.1
21,Cc1[nH]c2ccc(CNC3CCN(Cc4ccccn4)CC3)cc2c1C,3.44
22,CCCn1cc(S(=O)(=O)N[C@H]2CN(C(C)=O)C[C@@H]2C2CC2)cn1,-1.84
23,Cc1ccc(CN2CCOC(c3cnccn3)C2)s1 (stereo not drawn),-5.54

row,Compound,cytotoxicity at 70.5 h [%]
1,CC(C)c1nn(C)c(N(C)C)c1CNCc1cccc2cccnc12,5.24
2,CCc1nccn1C1CCCN(C(=O)c2cncn2-c2ccccc2)C1 (stereo not drawn),-6.28
3,CN(C)S(=O)(=O)N1CCCC(CCC(=O)Nc2ccc(Cl)cc2)C1 (stereo not drawn),42.2
4,COc1ccccc1-c1nnc2n1NC(N)=C(C#N)S2,-28.8
5,CCN(CC)C(=O)CNC(=O)c1cnc(-c2ccccc2)nc1,-2.98
6,Cc1cnn(CC2CN(Cc3cccc(OCC(N)=O)c3)CCO2)c1 (stereo not drawn),-5.97
7,COCCN1CCC(NCc2c(C)nn(C)c2N(C)C)CC1,-4.85
8,Cc1nc(CN2CCCC(NCc3ccsc3)C2)no1 (stereo not drawn),1.36
9,O=C1NC2(Cc3ccccc31)CN(CC1CCNCC1)C2,12.6
10,Cn1cc(CNc2ccc(CCO)cc2)c(-c2ccncc2)n1,21.4
11,CCN1CCC(NC(=O)CN2CCCC2Cn2nc(C)nc2C)CC1 (stereo not drawn),3.87
12,Cc1cc(C[C@@H]2CCC[C@H]2NCc2cc(C)c(O)c(C)c2)on1,2.36
13,Cc1[nH]ccc1C(=O)N1C[C@H]2CC[C@@H]1CN(S(=O)(=O)N(C)C)C2,-6.98
14,Cn1nccc1C(=O)N1CCN(C(=O)C2CCC2)[C@@H]2CS(=O)(=O)C[C@@H]21,-6.57
15,CC(C)(CNC(=O)NCCOc1cccc(F)c1)C(N)=O,-1.08
16,CCN(CC)C(=O)Cn1ccc2cc(NC(=O)COC)ccc21,-2.77
17,COCC(C)NC(=O)c1nnn(-c2ccc(OC)cc2)n1 (stereo not drawn),-9.57
18,N#Cc1ccnc(N2CCN(CC(O)c3ccccc3)CC2)c1 (stereo not drawn),-8.1
19,O=C(c1ccc(O)c(Cl)c1)N1CCN(c2nccs2)CC1,-9.18
20,Cc1ccc(C(=O)N2CC(=O)N(Cc3cccs3)CC(O)C2)cc1 (stereo not drawn),-0.413
21,COc1ccccc1CNC(=O)N1CCCC(NS(C)(=O)=O)C1 (stereo not drawn),15.3
22,CCc1cc(N2CCC(NC3CN4CCC3CC4)CC2)nc(N(C)C)n1 (stereo not drawn),29.4
23,COCc1cncc2c1CCN(C(=O)c1ccsc1)C2,9.92

row,Compound,cytotoxicity at 70.5 h [%]
1,c1cc2c(cc1C1CCCN1Cc1nnnn1C1CC1)OCCO2 (stereo not drawn),13.7
2,CCOc1ccnc(N2CCCN(C(=O)c3cc[nH]c3C)CC2)n1,17.6
3,CC1Oc2c(cccc2C(=O)N2CCN(CC(C)(C)O)CC2)NC1=O (stereo not drawn),-10.7
4,CCn1ncc(CN2CCc3c(nc(-c4cccnc4)[nH]c3=O)C2)c1C,-18.3
5,O=C(O)C1(Cc2cccc(-c3ccc(F)cc3)c2)CCOCC1,9.21
6,Cc1cccc2c(CCNS(=O)(=O)C3CCOC3)c[nH]c12 (stereo not drawn),12.8
7,Cc1ccc(N2CCC(N3C[C@@H](CN(C)C)[C@@H](CO)C3)CC2)cc1,-6.07
8,Cc1cc(C(=O)N2CCc3[nH]cnc3C2C(=O)O)c(-c2ccccc2)o1 (stereo not drawn),-3.87
9,CCn1cc(NC(=O)C2CCC(=O)N2Cc2ccc(C)o2)cn1 (stereo not drawn),-2.42
10,CCSCCC(=O)Nc1ncn(Cc2ccccc2)n1,-14.4
11,CCC(=O)N1CC[C@@H](c2ccc3ccccc3c2)[C@H](O)C1,-10.5
12,c1sc(C2CCCC2)nc1CN1CCn2c(nnc2C2CC2)C1,4.56
13,CCS(=O)(=O)NCC(=O)NC1(C)CCc2ccccc2C1 (stereo not drawn),-5.54
14,O=c1[nH]c(NC2CCCC2)nc2nccc(-c3ccco3)c12,-8.71
15,CCn1cnnc1CNC(=O)N(C)Cc1cccc(Cl)c1Cl,-6.25
16,COc1ccc(NC(=O)N(C)Cc2ccco2)cn1,-6.69
17,O=C(CCS(=O)(=O)C1CCCC1)N1CCC(O)(C(F)(F)F)C1 (stereo not drawn),19.5
18,COc1ccc(C(=O)C2CCCN(c3cnccn3)C2)c(C)c1 (stereo not drawn),-8.1
19,CC(C)N(CCO)C(=O)C1CCC(=O)N(Cc2ccc(Cl)cc2)C1 (stereo not drawn),-4.75
20,CCNC(=O)CCN1CCCC1c1cccc2c1OCCO2 (stereo not drawn),-7.15
21,CSCC(C)(O)CNC(=O)c1cccc(Cl)c1Cl (stereo not drawn),-5.93
22,Cc1ccc(CN2CCN(Cc3ccncc3)[C@@H]3CS(=O)(=O)C[C@@H]32)cc1,-7.92
23,CC(=O)N1CC[C@H](c2nc3cc(C)ccc3o2)C1,0.212

row,Compound,cytotoxicity at 70.5 h [%]
1,Cc1ccccc1OCCCNC(=O)C1(C)CC(=O)N2C=CC=CC2=N1 (stereo not drawn),0.923
2,CN(CCS(=O)(=O)c1cc(Cl)ccc1Cl)CC(=O)Nc1ccc(F)cc1,6.55
3,Cc1ccc(O)c(CNc2cccc(CN3CCN(C)CC3)c2)n1,-0.441
4,CCCN(Cc1nc2ccccc2[nH]1)Cc1ccccc1OC,-4
5,CN1CCN(C(=O)NCCc2ccc(F)cc2)[C@H]2CS(=O)(=O)C[C@H]21,-2.69
6,CC1CN(C(=O)NCCn2ccnc2)CCO1 (stereo not drawn),-1.49
7,c1ccc(-c2nc(CNCCn3cccn3)cs2)nc1,19.2
8,CN(C)C(=O)[C@]12CCCN(CC3CC3)C[C@H]1CN(c1ccccn1)C2,-8.29
9,FC(F)(F)c1cc(C2CCCN(Cc3cccnc3)C2)n[nH]1 (stereo not drawn),9.85
10,CC(Cn1cccn1)n1cnc2cccc(Cl)c2c1=O (stereo not drawn),7.81
11,COCCS(=O)(=O)Nc1ccc(-n2cncn2)c(F)c1,-8.99
12,COCCCN1CCC(NC(=O)C2CC2)CC1,-4.57
13,CN1CCC(CO[C@H]2CN(C(=O)c3cccn3C)[C@@H]3COC[C@H]23)CC1,-11.6
14,CC(=O)N(C)c1nc(CN2CCN(c3nccs3)CC2)cs1,-5.68
15,CCSC(C)c1nc(-c2ccc(C)nn2)no1 (stereo not drawn),4.73
16,Cn1cc(C[C@H]2[C@H](N3CCOCC3)CCN2C2CCOCC2)cn1,-13.7
17,Cc1noc(C)c1Cc1nc(N(C)C)no1,-12.3
18,O=C1CCc2cc(-c3csc(CCN4CCOC4=O)n3)ccc2N1,2.18
19,Cc1ccc(-c2cc(CN3CCc4cnc(C)nc4C3)on2)cc1,-10.1
20,Cn1cnc2c1C(C(=O)N1CCCO1)N(C(=O)c1ccccc1)CC2 (stereo not drawn),-9.14
21,Cc1ccccc1S(=O)(=O)NC(=O)CSc1ccc2c(c1)OCCO2,-4.74
